Tested on: GRMD plasma proteins
Type: in vivo, dog
Conditions: Post-Treatment to GRMD baseline; Increased in GRMD

O=c1ccc(-c2cnc(OCC(F)(F)F)nc2)nn1Cc1cncc(F)c1 [EDG-5506]
Change from GRMD Baseline (fraction): Fructose-bisphosphate aldolase A (ALDOA): -0.0462 fraction | Change from GRMD Baseline (fraction): G2/mitotic-specific cyclin-B1 (CCNB1): 0.0445 fraction | Change from GRMD Baseline (fraction): Galectin-4 (LGALS4): -0.0246 fraction | Change from GRMD Baseline (fraction): Galectin-7 (LGALS7): 0.0215 fraction | Change from GRMD Baseline (fraction): Glucose-6-phosphate isomerase (GPI): -0.1195 fraction | Change from GRMD Baseline (fraction): Glyceraldehyde-3-phosphate dehydrogenase (GAPDH): 0.1936 fraction | Change from GRMD Baseline (fraction): Glycogen synthase kinase-3 alpha/beta (GSK3A GSK3B): -0.1722 fraction | Change from GRMD Baseline (fraction): Granulocyte-macrophage colony-stimulating factor (CSF2): -0.1154 fraction | Change from GRMD Baseline (fraction): Growth factor receptor-bound protein 2 (GRB2): -0.2826 fraction | Change from GRMD Baseline (fraction): Growth/differentiation factor 5 (GDF5): -0.0828 fraction | Change from GRMD Baseline (fraction): Heat shock 70 kDa protein 1A (HSPA1A): -0.1812 fraction | Change from GRMD Baseline (fraction): Heat shock cognate 71 kDa protein (HSPA8): -0.1958 fraction | Change from GRMD Baseline (fraction): Heat shock protein HSP 90-alpha/beta (HSP90AA1 HSP90AB1): -0.0775 fraction | Change from GRMD Baseline (fraction): Heat shock protein HSP 90-beta (HSP90AB1): -0.0807 fraction | Change from GRMD Baseline (fraction): Heat shock protein beta-1 (HSPB1): -0.0394 fraction | Change from GRMD Baseline (fraction): Hepatoma-derived growth factor-related protein 2 (HDGFRP2): 0.011 fraction | Change from GRMD Baseline (fraction): Heterogeneous nuclear ribonucleoprotein A/B (HNRNPAB): -0.0915 fraction | Change from GRMD Baseline (fraction): Heterogeneous nuclear ribonucleoprotein Q (SYNCRIP): -0.0651 fraction | Change from GRMD Baseline (fraction): Heterogeneous nuclear ribonucleoproteins A2/B1 (HNRNPA2B1): -0.1176 fraction | Change from GRMD Baseline (fraction): Hexokinase-2 (HK2): 0.0338 fraction | Change from GRMD Baseline (fraction): Histidine triad nucleotide-binding protein 1 (HINT1): -0.0574 fraction | Change from GRMD Baseline (fraction): Histone H1.2 (HIST1H1C): -0.0242 fraction | Change from GRMD Baseline (fraction): Histone deacetylase 8 (HDAC8): 0.0429 fraction | Change from GRMD Baseline (fraction): Homeodomain-interacting protein kinase 3 (HIPK3): 0.4997 fraction | Change from GRMD Baseline (fraction): Immunoglobulin superfamily containing leucine-rich repeat protein 2 (ISLR2): -0.0595 fraction | Change from GRMD Baseline (fraction): Inducible T-cell costimulator (ICOS): -0.0476 fraction | Change from GRMD Baseline (fraction): Inosine-5'-monophosphate dehydrogenase 2 (IMPDH2): -0.0129 fraction | Change from GRMD Baseline (fraction): Insulin-degrading enzyme (IDE): -0.2863 fraction | Change from GRMD Baseline (fraction): Insulin-like growth factor-binding protein 3 (IGFBP3): 0.0105 fraction | Change from GRMD Baseline (fraction): Intercellular adhesion molecule 5 (ICAM5): -0.1345 fraction | Change from GRMD Baseline (fraction): Interferon alpha-10 (IFNA10): -0.0472 fraction | Change from GRMD Baseline (fraction): Interleukin-1 alpha (IL1A): -0.0188 fraction | Change from GRMD Baseline (fraction): Interleukin-1 receptor-like 2 (IL1RL2): 0.0618 fraction | Change from GRMD Baseline (fraction): Interleukin-15 receptor subunit alpha (IL15RA): -0.0392 fraction | Change from GRMD Baseline (fraction): Interleukin-17F (IL17F): -0.0474 fraction | Change from GRMD Baseline (fraction): Interleukin-37 (IL37): -0.0158 fraction | Change from GRMD Baseline (fraction): Junctional adhesion molecule B (JAM2): -0.0421 fraction | Change from GRMD Baseline (fraction): Junctional adhesion molecule C (JAM3): 0.0569 fraction | Change from GRMD Baseline (fraction): Kallikrein-6 (KLK6): -0.032 fraction | Change from GRMD Baseline (fraction): Kallikrein-12 (KLK12): 0.0927 fraction | Change from GRMD Baseline (fraction): Kallikrein-14 (KLK14): 0.0054 fraction | Change from GRMD Baseline (fraction): Kin of IRRE-like protein 3 (KIRREL3): 0.0811 fraction | Change from GRMD Baseline (fraction): Kremen protein 2 (KREMEN2): -0.0135 fraction | Change from GRMD Baseline (fraction): Kynureninase (KYNU): 0.1449 fraction | Change from GRMD Baseline (fraction): L-Selectin (SELL): -0.0484 fraction | Change from GRMD Baseline (fraction): L-lactate dehydrogenase B chain (LDHB): -0.1273 fraction | Change from GRMD Baseline (fraction): Leucine-rich repeat serine/threonine-protein kinase 2 (LRRK2): -0.023 fraction | Change from GRMD Baseline (fraction): Leucine-rich repeat transmembrane protein FLRT1 (FLRT1): 0.162 fraction | Change from GRMD Baseline (fraction): Low affinity immunoglobulin epsilon Fc receptor (FCER2): -0.0106 fraction | Change from GRMD Baseline (fraction): MAP kinase-activated protein kinase 2 (MAPKAPK2): -0.1017 fraction | Change from GRMD Baseline (fraction): MAP kinase-activated protein kinase 3 (MAPKAPK3): -0.0643 fraction | Change from GRMD Baseline (fraction): Macrophage scavenger receptor types I and II (MSR1): 0.4558 fraction | Change from GRMD Baseline (fraction): Malate dehydrogenase, cytoplasmic (MDH1): -0.0153 fraction | Change from GRMD Baseline (fraction): Methionine aminopeptidase 2 (METAP2): -0.0243 fraction | Change from GRMD Baseline (fraction): Microtubule-associated protein tau (MAPT): -0.0598 fraction | Change from GRMD Baseline (fraction): Mitogen-activated protein kinase 3 (MAPK3): -0.1158 fraction | Change from GRMD Baseline (fraction): Mitogen-activated protein kinase 8 (MAPK8): -0.1634 fraction | Change from GRMD Baseline (fraction): Mitogen-activated protein kinase 12 (MAPK12): -0.2043 fraction | Change from GRMD Baseline (fraction): Mitogen-activated protein kinase 14 (MAPK14): -0.1229 fraction | Change from GRMD Baseline (fraction): Mothers against decapentaplegic homolog 3 (SMAD3): -0.0623 fraction | Change from GRMD Baseline (fraction): Myeloblastin (PRTN3): -0.0133 fraction | Change from GRMD Baseline (fraction): Myoglobin (MB): -0.1998 fraction | Change from GRMD Baseline (fraction): Myosin-binding protein C, slow-type (MYBPC1): -0.0674 fraction | Change from GRMD Baseline (fraction): NKG2D ligand 2 (ULBP2): 0.031 fraction | Change from GRMD Baseline (fraction): NSFL1 cofactor p47 (NSFL1C): -0.264 fraction | Change from GRMD Baseline (fraction): Natural cytotoxicity triggering receptor 3 (NCR3): -0.0108 fraction | Change from GRMD Baseline (fraction): Neuronal cell adhesion molecule (NRCAM): -0.0939 fraction | Change from GRMD Baseline (fraction): Neutral ceramidase (ASAH2): -0.0127 fraction | Change from GRMD Baseline (fraction): Nucleoside diphosphate kinase A (NME1): -0.1372 fraction | Change from GRMD Baseline (fraction): OCIA domain-containing protein 1 (OCIAD1): -0.0044 fraction | Change from GRMD Baseline (fraction): Oncostatin-M (OSM): 0.019 fraction | Change from GRMD Baseline (fraction): Opioid-binding protein/cell adhesion molecule (OPCML): -0.0002 fraction | Change from GRMD Baseline (fraction): PIK3CA/PIK3R1 (PIK3CA PIK3R1): -0.229 fraction | Change from GRMD Baseline (fraction): Parathyroid hormone-related protein (PTHLH): -0.097 fraction | Change from GRMD Baseline (fraction): Peptidyl-prolyl cis-trans isomerase E (PPIE): -0.0771 fraction | Change from GRMD Baseline (fraction): Peroxiredoxin-1 (PRDX1): -0.0908 fraction | Change from GRMD Baseline (fraction): Peroxiredoxin-6 (PRDX6): -0.0459 fraction | Change from GRMD Baseline (fraction): Phosphatidylethanolamine-binding protein 1 (PEBP1): 0.0739 fraction | Change from GRMD Baseline (fraction): Phosphoglucomutase-1 (PGM1): 0.1179 fraction | Change from GRMD Baseline (fraction): Phosphoglycerate mutase 1 (PGAM1): -0.9265 fraction | Change from GRMD Baseline (fraction): Plasma serine protease inhibitor (SERPINA5): -0.0121 fraction | Change from GRMD Baseline (fraction): Platelet glycoprotein 4 (CD36): 0.0288 fraction | Change from GRMD Baseline (fraction): Platelet-activating factor acetylhydrolase (PLA2G7): 0.0256 fraction | Change from GRMD Baseline (fraction): Platelet-derived growth factor receptor alpha (PDGFRA): -0.0004 fraction | Change from GRMD Baseline (fraction): Proliferating cell nuclear antigen (PCNA): -0.0276 fraction | Change from GRMD Baseline (fraction): Protein NOV homolog (NOV): -0.0669 fraction | Change from GRMD Baseline (fraction): Protein S100-A12 (S100A12): -0.009 fraction | Change from GRMD Baseline (fraction): RAC-alpha/beta/gamma serine/threonine-protein kinase (AKT1 AKT2 AKT3): -0.2013 fraction | Change from GRMD Baseline (fraction): RAC-beta serine/threonine-protein kinase (AKT2): -0.1736 fraction | Change from GRMD Baseline (fraction): Rab GDP dissociation inhibitor beta (GDI2): -0.0642 fraction | Change from GRMD Baseline (fraction): Receptor tyrosine-protein kinase erbB-3 (ERBB3): -0.022 fraction | Change from GRMD Baseline (fraction): Receptor-type tyrosine-protein kinase FLT3 (FLT3): -0.0737 fraction | Change from GRMD Baseline (fraction): Renin (REN): -0.032 fraction | Change from GRMD Baseline (fraction): Retinoblastoma-associated protein (RB1): 0.235 fraction | Change from GRMD Baseline (fraction): S-formylglutathione hydrolase (ESD): 0.0004 fraction | Change from GRMD Baseline (fraction): Serine/threonine-protein kinase 17B (STK17B): 0.0071 fraction | Change from GRMD Baseline (fraction): Serine/threonine-protein kinase Chk2 (CHEK2): 0.4343 fraction | Change from GRMD Baseline (fraction): Serine/threonine-protein kinase WNK3 (WNK3): -0.2205 fraction | Change from GRMD Baseline (fraction): Serine/threonine-protein kinase receptor R3 (ACVRL1): -0.0651 fraction | Change from GRMD Baseline (fraction): Small nuclear ribonucleoprotein F (SNRPF): -0.0033 fraction | Change from GRMD Baseline (fraction): Somatostatin-28 (SST): -0.0229 fraction | Change from GRMD Baseline (fraction): T-lymphocyte activation antigen CD80 (CD80): 0.0022 fraction | Change from GRMD Baseline (fraction): Thymic stromal lymphopoietin (TSLP): -0.034 fraction | Change from GRMD Baseline (fraction): Thyroid peroxidase (TPO): -0.0311 fraction | Change from GRMD Baseline (fraction): Tissue factor pathway inhibitor (TFPI): 0.029 fraction | Change from GRMD Baseline (fraction): Transcription factor AP-1 (JUN): 0.0325 fraction | Change from GRMD Baseline (fraction): Transketolase (TKT): -0.16 fraction | Change from GRMD Baseline (fraction): Translationally-controlled tumor protein (TPT1): -0.0704 fraction | Change from GRMD Baseline (fraction): Triosephosphate isomerase (TPI1): -0.2239 fraction | Change from GRMD Baseline (fraction): Tropomyosin beta chain (TPM2): 0.0295 fraction | Change from GRMD Baseline (fraction): Troponin I, cardiac muscle (TNNI3): 0.0415 fraction | Change from GRMD Baseline (fraction): Troponin I, fast skeletal muscle (TNNI2): -0.0403 fraction | Change from GRMD Baseline (fraction): Troponin T, cardiac muscle (TNNT2): -0.0244 fraction | Change from GRMD Baseline (fraction): Tumor necrosis factor ligand superfamily member 11 (TNFSF11): 0.0726 fraction | Change from GRMD Baseline (fraction): Tumor necrosis factor receptor superfamily member 1B (TNFRSF1B): -0.0355 fraction | Change from GRMD Baseline (fraction): Tumor necrosis factor receptor superfamily member 3 (LTBR): -0.0213 fraction | Change from GRMD Baseline (fraction): Tyrosine-protein kinase Yes (YES1): -0.136 fraction | Change from GRMD Baseline (fraction): Tyrosine-protein kinase ZAP-70 (ZAP70): 0.0305 fraction | Change from GRMD Baseline (fraction): Tyrosine-protein phosphatase non-receptor type 1 (PTPN1): -0.0601 fraction
